Test results: patent publication US20240400546A1, “COMPOUNDS AND USES THEREOF” (JANSSEN PHARMACEUTICA NV, priority 2016, published 2024)
Values joined by “and” are separate entries in the source; they are usually repeats but may differ in a detail not shown here. Identical values can stand only once.

These compounds were tested against T1, SCD5 (Homo sapiens, UniProt Q86SK9) (assay: Growth inhibition of humanized yeast expressing SCD5 as sole desaturase). Details: humanized yeast expressing SCD5.
T1 construct: host or cells: S. cerevisiae ole1Δ strain, plasmid pRS316 with TDH3 promoter and CYC1 terminator
T1 sequence (Q86SK9 1-330): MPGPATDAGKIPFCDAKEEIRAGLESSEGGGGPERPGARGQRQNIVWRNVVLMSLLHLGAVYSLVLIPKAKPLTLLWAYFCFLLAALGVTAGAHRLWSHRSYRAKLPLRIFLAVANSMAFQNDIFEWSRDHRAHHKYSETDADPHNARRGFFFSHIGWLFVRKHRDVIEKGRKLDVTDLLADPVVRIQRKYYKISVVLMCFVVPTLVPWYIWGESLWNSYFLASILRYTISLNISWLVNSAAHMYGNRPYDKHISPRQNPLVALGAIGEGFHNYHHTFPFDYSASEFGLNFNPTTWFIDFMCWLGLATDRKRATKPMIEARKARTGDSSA
Assay type: cell-based
Description: (§1) Strain ole1Δ (yeast ole1 deletion mutant) was constructed by deleting OLE1 with NAT-MX6 in BY4741, amplifying the deletion cassette from the genomic DNA of the resulting strain with primers flanking the ORF by 1000 bp upstream and downstream, transforming the resulting deletion cassette into W303 pdr1Δ pdr3Δ, and plating transformants on YPD media containing G418 (200 μg/mL) and nourseothricin (100 μg/mL) with 0.01% TWEEN®-20 and 0.5 mM oleic and palmitoleic acids.
(§2) The coding sequence of yeast OLE1 was also cloned into this plasmid). These clones were then transformed into the ole1Δ strain and plated on CSM-Ura media (CSM lacking uracil) with 2% glucose (w/v) and independent colonies were isolated and amplified.
(§3) All compound profiling experiments were performed using the same basic protocol. Different genetic backgrounds (e.g., gene deletions) or conditions (e.g., addition of oleic and palmitoleic acid) were replaced as indicated below.
(§4) Yeast were cultured using standard techniques in complete synthetic media (CSM) and yeast nitrogen base supplemented with 2% (w/v) carbon source (glucose, raffinose, or galactose) to regulate the expression of the toxic disease protein. An initial starter culture was inoculated in 3 mL CSM-Glucose media and incubated overnight in a 30° C. shaker incubator (225 rpm). Saturated morning cultures were then diluted 1:20 in fresh CSM-Raffinose media and grown for 6 h to an OD600 (optical density) of ˜0.4-0.8 at 30° C. with shaking.
(§5) Compound administration was performed in two separate steps. First, 15 μL of CSM-Galactose (induces expression of toxic protein) was dispensed into clear 384 well assay plates using a MULTIDROP™ Combi reagent dispenser. […] The cultures described above were then diluted to a 2× concentration (0.03 and 0.08 for alpha-synuclein and ApoE, final OD600 of 0.015 and 0.04) in CSM-Galactose. For wild-type and Ole1/SCD1/SCD5 plasmid-containing strains, the 2× cell density was 0.02. […] For 96-well assays (FIGS. 1A and 1B), compound dilutions in DMSO were generated in 96 well plates and 1 μL was manually pipetted into 96 well clear bottom assay plates.
(§6) For experiments using a plasmid-borne copy of Ole1, SCD1, or SCD5 (FIGS. 3B, 6, and 7), media lacking uracil (SX-Ura, where X is glucose, raffinose, or galactose), was used for all steps of the compound profiling protocol to ensure its maintenance throughout the assay.
(§7) After yeast delivery, assay plates were incubated under humidified conditions at 30° C. for 24 to 40 h. ApoE4 rescue experiments were stopped at 24 h, aSyn experiments at 40 h, Ole1 at 24 h, and SCD1/SCD5 at 40 h. The growth of yeast was monitored by reading the OD600 of each well using a microplate reader (Perkin Elmer EnVision™).
Cc1nn(C)c2cc(-c3nc(C4CCN(C(=O)OC(C)(C)C)CC4)no3)ccc12 [Compound 319] was tested, and the “SCD5 % Max Inhibition” value was 4.96% and 10.94%.

Same assay, conditions: humanized yeast expressing human SCD5
With O=C([C@H]1CC(=O)N(c2ccccc2)C1)N1CCC(c2nc(N3CC4(COC4)C3)no2)CC1 [Compound 316] the IC50 was ≥ 45 µM.
In the case of O=C(C1CC(=O)N(c2cccc(Cl)c2)C1)N1CCC(c2nc(Cl)no2)CC1 (stereo not shown) [Compound 348], the IC50 is reported as ≥ 45 µM.
With N#Cc1cccc(N2CC(C(=O)N3CCC(c4nc(Cl)no4)CC3)CC2=O)c1 (stereo not shown) [Compound 350] the IC50 was ≥ 45 µM.

These compounds were tested against T2, SCD1 (Homo sapiens, UniProt O00767) (assay: Growth inhibition of humanized yeast expressing SCD1 as sole desaturase). Details: humanized yeast expressing human SCD1.
T2 construct: host or cells: S. cerevisiae ole1Δ strain, plasmid pRS316 with TDH3 promoter and CYC1 terminator
T2 sequence (O00767 1-359): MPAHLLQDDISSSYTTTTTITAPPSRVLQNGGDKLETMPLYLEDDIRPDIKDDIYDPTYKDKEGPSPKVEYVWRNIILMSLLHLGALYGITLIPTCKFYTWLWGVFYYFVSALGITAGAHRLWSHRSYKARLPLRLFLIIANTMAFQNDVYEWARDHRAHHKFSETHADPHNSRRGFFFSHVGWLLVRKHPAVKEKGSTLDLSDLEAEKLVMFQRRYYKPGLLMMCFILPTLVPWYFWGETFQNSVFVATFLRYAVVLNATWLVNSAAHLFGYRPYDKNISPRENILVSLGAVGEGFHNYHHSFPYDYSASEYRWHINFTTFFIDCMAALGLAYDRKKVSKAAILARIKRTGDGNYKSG
Assay type: cell-based
Description: as §1, §2, §3, §4, §5, §6, §7
CC(C)n1ncc2ccc(-c3noc(C4CCN(C(=O)c5ccc(Cl)cc5F)CC4)n3)cc21 [Compound 533] was tested, and the IC50 was > 45 µM.
In the case of CC(C)n1ncc2ccc(N3CC4(CCN(C(=O)c5ccccc5Cl)CC4)C3)cc21 [Compound 534], the IC50 is reported as > 45 µM.
In the case of CC(=O)N[C@H]1CC[C@H](c2nc(-c3ccc4cnn(C(C)C)c4c3)no2)CC1 [Compound 535], the IC50 is reported as > 45 µM.
For CC(C)n1ncc2ccc(-c3noc([C@H]4CC[C@@H](N)CC4)n3)cc21 [Compound 536], the IC50 was > 45 µM.
With CC(C)n1ncc2ccc(-c3noc([C@H]4CC[C@H](NC(=O)OC(C)(C)C)CC4)n3)cc21 [Compound 537] the IC50 was > 45 µM.
For CC(C)n1ncc2ccc(N3CC4(CCNCC4)C3)cc21 [Compound 538], the IC50 was > 45 µM.
COc1ccc(S(=O)(=O)N2CCC(c3nc(-c4ccc5cnn(C(C)C)c5c4)no3)CC2)c(Br)c1 [Compound 539] was tested, and the IC50 was > 45 µM.
For CC(C)n1ncc2ccc(-c3noc(C4CCN(S(=O)(=O)c5ccccc5Cl)CC4)n3)cc21 [Compound 540], the IC50 was > 45 µM.
CC(C)n1ncc2ccc(-c3noc(C4CCN(C(=O)c5ccc(Cl)c(F)c5)CC4)n3)cc21 [Compound 541] was tested, and the IC50 was > 45 µM.
For CC(C)n1ncc2ccc(-c3noc(C4CCN(C(=O)c5ccc(F)cc5)CC4)n3)cc21 [Compound 544], the IC50 was > 45 µM.
With Cn1ncc2ccc(-c3noc(N4CCN(C(=O)OC(C)(C)C)CC4)n3)cc21 [Compound 545] the IC50 was > 45 µM.
CC(C)n1ncc2ccc(-c3nc(C4CCN(C(=O)CC5(C)CC5)CC4)no3)cc21 [Compound 546] was tested, and the IC50 was > 45 µM.
In the case of CC(C)n1ncc2ccc(-c3nc(N4CCN(C(=O)OC(C)(C)C)CC4)no3)cc21 [Compound 548], the IC50 is reported as > 45 µM.
In the case of CC(C)n1ncc2ccc(-c3noc(C4CCN(C(=O)c5nccs5)CC4)n3)cc21 [Compound 549], the IC50 is reported as > 45 µM.
COC(=O)N[C@H]1CC[C@@H](c2nc(-c3ccc4c(C)nn(C)c4c3)no2)CC1 [Compound 550] was tested, and the IC50 was > 45 µM.
For CC(C)n1ncc2ccc(-c3noc(N4CC5(CCN(C(=O)OC(C)(C)C)CC5)C4)n3)cc21 [Compound 555], the IC50 was > 45 µM.
For CC(C)n1ncc2ccc(-c3noc(C4CCN(C(=O)CNC(=O)c5cccc(C#N)c5)CC4)n3)cc21 [Compound 556], the IC50 was > 45 µM.
With O=C(CC1CC1)N1CCC(c2nc(-c3ccc4cnn(C5COC5)c4c3)no2)CC1 [Compound 558] the IC50 was > 45 µM.
With CC1(CC(=O)N2CCC(c3nc(-c4ccc5cnn(C6COC6)c5c4)no3)CC2)CC1 [Compound 559] the IC50 was > 45 µM.
For CCc1cnc(N2CCC(c3nc(-c4ccc5c(C)nn(C)c5c4)no3)CC2)cn1 [Compound 560], the IC50 was > 45 µM.
COC(=O)N1CCC(c2nc(-c3ccc4cnn(C(F)F)c4c3)no2)CC1 [Compound 561] was tested, and the IC50 was > 45 µM.
For O=C(c1ccccc1Cl)N1CCC(c2nc(-c3ccc4cnn(C5COC5)c4c3)no2)CC1 [Compound 562], the IC50 was > 45 µM.
With O=C(c1ccccc1)N1CCC(c2nc(-c3ccc4cnn(C5COC5)c4c3)no2)CC1 [Compound 564] the IC50 was > 45 µM.
With CC(C)CS(=O)(=O)N1CCC(c2nc(-c3ccc4cnn(C(C)C)c4c3)no2)CC1 [Compound 565] the IC50 was > 45 µM.
For COC(=O)N1C[C@H]2CN(c3nc(-c4ccc5cnn(C(C)C)c5c4)no3)C[C@@H]2C1 [Compound 568], the IC50 was > 45 µM.
With CC(C)n1ncc2ccc(-c3noc(N4C[C@@H]5CN(C(=O)CC(C)(C)C)C[C@H]5C4)n3)cc21 [Compound 569] the IC50 was > 45 µM.
With COC(=O)N1CCC2(CC1)CN(c1nc(-c3ccc4cnn(C(C)C)c4c3)no1)C2 [Compound 570] the IC50 was > 45 µM.
In the case of CC(=O)N1CCC2(CC1)CN(c1nc(-c3ccc4cnn(C(C)C)c4c3)no1)C2 [Compound 571], the IC50 is reported as > 45 µM.
For CC(C)N1C(=O)CCc2ccc(-c3noc(C4CCN(C(=O)OC(C)(C)C)CC4)n3)cc21 [Compound 572], the IC50 was > 45 µM.
In the case of CC(C)n1ncc2ccc(-c3noc(C4CCN(C(=O)c5cscn5)CC4)n3)cc21 [Compound 573], the IC50 is reported as > 45 µM.
For CC(C)n1ncc2ccc(-c3noc(C4CCN(C(=O)c5cccs5)CC4)n3)cc21 [Compound 574], the IC50 was > 45 µM.
CC(C)n1ncc2ccc(-c3noc(C4CCN(C(=O)c5ccsc5Cl)CC4)n3)cc21 [Compound 575] was tested, and the IC50 was > 45 µM.
With CC1(OC(=O)N2CCC(c3nc(-c4ccc5cnn(C6COC6)c5c4)no3)CC2)CC1 [Compound 576] the IC50 was > 45 µM.
Cc1nn(C)c2cc(-c3noc([C@@H]4CCN(C(=O)CNC(=O)c5ccccc5)CC4(F)F)n3)ccc12 [Compound 577] was tested, and the IC50 was > 45 µM.
Cc1nn(C)c2cc(-c3noc(C4CCN(c5nc(C(C)C)no5)CC4)n3)ccc12 [Compound 581] was tested, and the IC50 was > 45 µM.
With CC(C)n1ncc2ccc(-c3nc(N4CCN(C(=O)c5ccccc5)CC4)no3)cc21 [Compound 582] the IC50 was > 45 µM.
For CC(C)n1ncc2ccc(-c3noc(C4CCN(C(=O)c5ccc(Cl)cn5)CC4)n3)cc21 [Compound 586], the IC50 was > 45 µM.
In the case of CC(C)n1ncc2ccc(-c3noc(C4CCN(C(=O)c5ncccc5Cl)CC4)n3)cc21 [Compound 587], the IC50 is reported as > 45 µM.
CC(C)n1ncc2ccc(-c3noc(C4CCN(C(=O)c5ccsn5)CC4)n3)cc21 [Compound 588] was tested, and the IC50 was > 45 µM.
In the case of CC(C)n1ncc2ccc(-c3noc(C4CCN(C(=O)c5ncc(Cl)s5)CC4)n3)cc21 [Compound 589], the IC50 is reported as > 45 µM.
Cc1noc2cc(-c3noc(C4CCN(C(=O)OC5(C)CC5)CC4)n3)ccc12 [Compound 590] was tested, and the IC50 was > 45 µM.
With Cc1noc2cc(-c3noc(C4CCN(C(=O)CC5(C)CC5)CC4)n3)ccc12 [Compound 591] the IC50 was > 45 µM.
In the case of Cc1nn(C)c2cc(-c3noc(C4CCN(C(=O)CC5COC5)CC4)n3)ccc12 [Compound 592], the IC50 is reported as > 45 µM.
For CC(C)n1ncc2ccc(-c3noc(N4CCN(C(=O)OCC(F)(F)F)CC4)n3)cc21 [Compound 593], the IC50 was > 45 µM.
CC(C)n1ncc2ccc(N3CC4(CCN(C(=O)OC5CC5)CC4)C3)cc21 [Compound 594] was tested, and the IC50 was > 45 µM.
With COCC(=O)N1CCN(c2nc(-c3ccc4cnn(C(C)C)c4c3)no2)CC1 [Compound 595] the IC50 was > 45 µM.
CC(C)n1ncc2ccc(-c3noc([C@H]4CC[C@H](N)CC4)n3)cc21 [Compound 596] was tested, and the IC50 was > 45 µM.
C[C@@H](O)C(=O)N1CCC(c2nc(-c3ccc4cnn(C5COC5)c4c3)no2)CC1 [Compound 597] was tested, and the IC50 was > 45 µM.
For O=C(NCC(=O)N1CCC(c2nc(-c3ccc4cnn(C5COC5)c4c3)no2)CC1)c1ccccc1 [Compound 598], the IC50 was > 45 µM.
With N#Cc1cccc(N2C[C@@H](C(=O)N3CCC(c4nc(-c5ccc6cnn(C7COC7)c6c5)no4)CC3)CC2=O)c1 [Compound 599] the IC50 was > 45 µM.
In the case of N#Cc1cccc(N2C[C@H](C(=O)N3CCC(c4nc(-c5ccc6cnn(C7COC7)c6c5)no4)CC3)CC2=O)c1 [Compound 600], the IC50 is reported as > 45 µM.
